# Measured values taken from ChEMBL document CHEMBL3091315, “PDE2 inhibition: potential for the treatment of cognitive disorders” (Bioorg Med Chem Lett, 2013).
# Columns and labels:
# [1] = Drug uptake in Wistar rat striatum at 0.03 mg/kg, iv after 5 mins by LC-MS analysis; type: ADME, organism-based; parameters: dose 0.03 mg/kg, route intravenous; conditions: read-out: Drug uptake
# [2] = organism: Homo sapiens; experiment: Selectivity ratio of IC50 for human PDE10A to IC50 for human PDE2A
# [3] = organism: Homo sapiens; experiment: Selectivity ratio of IC50 for PDE7B (unknown origin) to IC50 for full length recombinant human PDE2A; conditions: tested as the 18F-labelled form
# [4] = organism: Homo sapiens; experiment: Selectivity ratio of IC50 for PDE11 (unknown origin) to IC50 for full length recombinant human PDE2A; conditions: tested as the 18F-labelled form
# [5] = organism: Homo sapiens; experiment: Selectivity ratio of IC50 for PDE3A (unknown origin) to IC50 for full length recombinant human PDE2A; conditions: tested as the 18F-labelled form
# [6] = organism: Homo sapiens; experiment: Selectivity ratio of IC50 for PDE1B (unknown origin) to IC50 for full length recombinant human PDE2A; conditions: tested as the 18F-labelled form
# [7] = organism: Homo sapiens; experiment: Selectivity ratio of IC50 for PDE4D (unknown origin) to IC50 for full length recombinant human PDE2A; conditions: tested as the 18F-labelled form
# [8] = organism: Homo sapiens; experiment: Selectivity ratio of IC50 for PDE9A (unknown origin) to IC50 for full length recombinant human PDE2A; conditions: tested as the 18F-labelled form
# [9] = organism: Homo sapiens; experiment: Selectivity ratio of IC50 for PDE5A (unknown origin) to IC50 for full length recombinant human PDE2A; conditions: tested as the 18F-labelled form
# [10] = organism: Homo sapiens; experiment: Selectivity ratio of IC50 for PDE6A (unknown origin) to IC50 for full length recombinant human PDE2A; conditions: tested as the 18F-labelled form
# [11] = organism: Homo sapiens; experiment: Selectivity ratio of IC50 for PDE8B (unknown origin) to IC50 for full length recombinant human PDE2A; conditions: tested as the 18F-labelled form
# [12] = Clearance in iv dosed rat; type: ADME, organism-based; conditions: in vivo
# [13] = Half life in iv dosed rat; type: ADME, organism-based; conditions: in vivo
# [14] = target: T1, cGMP-dependent 3',5'-cyclic phosphodiesterase (Homo sapiens, UniProt O00408); type: cell-based, SF-21
# T1 sequence (O00408 whole entry): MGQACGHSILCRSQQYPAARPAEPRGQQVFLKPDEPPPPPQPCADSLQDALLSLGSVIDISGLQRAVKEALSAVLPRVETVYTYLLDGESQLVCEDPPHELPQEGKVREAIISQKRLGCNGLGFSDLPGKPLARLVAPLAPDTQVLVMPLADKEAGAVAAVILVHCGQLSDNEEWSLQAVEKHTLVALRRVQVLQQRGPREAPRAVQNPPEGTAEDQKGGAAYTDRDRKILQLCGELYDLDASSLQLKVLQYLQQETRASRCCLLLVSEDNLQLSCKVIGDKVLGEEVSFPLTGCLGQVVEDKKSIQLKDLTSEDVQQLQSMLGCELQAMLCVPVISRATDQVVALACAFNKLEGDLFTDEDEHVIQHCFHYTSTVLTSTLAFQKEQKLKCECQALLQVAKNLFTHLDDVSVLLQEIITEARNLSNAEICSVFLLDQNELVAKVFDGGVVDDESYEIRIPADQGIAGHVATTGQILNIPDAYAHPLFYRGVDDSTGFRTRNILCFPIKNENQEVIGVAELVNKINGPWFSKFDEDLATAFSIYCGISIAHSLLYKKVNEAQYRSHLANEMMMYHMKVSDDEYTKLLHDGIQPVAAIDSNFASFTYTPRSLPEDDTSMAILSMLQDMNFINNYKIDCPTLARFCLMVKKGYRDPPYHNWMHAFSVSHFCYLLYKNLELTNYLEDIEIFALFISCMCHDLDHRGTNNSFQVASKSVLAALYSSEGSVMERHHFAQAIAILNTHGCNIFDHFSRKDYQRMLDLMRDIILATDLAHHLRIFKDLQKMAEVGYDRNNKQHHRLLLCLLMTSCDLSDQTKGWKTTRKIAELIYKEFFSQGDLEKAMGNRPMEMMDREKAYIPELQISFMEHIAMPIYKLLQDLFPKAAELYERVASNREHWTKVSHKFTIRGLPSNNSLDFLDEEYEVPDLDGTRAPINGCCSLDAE
# Description: Inhibition of recombinant PDE2A (unknown origin) expressed in baculovirus infected insect SF-21 cells using [3H]-cAMP as substrate after 30 mins by liquid scintillation counting analysis
# [15] = tested on: Cerebrum; experiment: Biodistribution in cerebrum of rat measured at 10 mins by microPET image analysis; type: ADME, organism-based; conditions: in vivo
# [16] = tested on: Cerebrum; experiment: Biodistribution in cerebrum of rat measured at 2 mins by microPET image analysis; type: ADME, organism-based; conditions: in vivo
# [17] = tested on: Cerebellum; experiment: Biodistribution in cerebellum of rat measured at 10 mins by microPET image analysis; type: ADME, organism-based; conditions: in vivo
# [18] = tested on: Cerebellum; experiment: Biodistribution in cerebellum of rat measured at 2 mins by microPET image analysis; type: ADME, organism-based; conditions: in vivo
# [19] = target: T2, cAMP and cAMP-inhibited cGMP 3',5'-cyclic phosphodiesterase 10A (Homo sapiens, UniProt Q9Y233); experiment: Inhibition of recombinant PDE10A (unknown origin) expressed in baculovirus infected insect SF-21 cells using [3H]-cAMP as substrate after 30 mins by liquid scintillation counting analysis
# T2 sequence (Q9Y233 whole entry): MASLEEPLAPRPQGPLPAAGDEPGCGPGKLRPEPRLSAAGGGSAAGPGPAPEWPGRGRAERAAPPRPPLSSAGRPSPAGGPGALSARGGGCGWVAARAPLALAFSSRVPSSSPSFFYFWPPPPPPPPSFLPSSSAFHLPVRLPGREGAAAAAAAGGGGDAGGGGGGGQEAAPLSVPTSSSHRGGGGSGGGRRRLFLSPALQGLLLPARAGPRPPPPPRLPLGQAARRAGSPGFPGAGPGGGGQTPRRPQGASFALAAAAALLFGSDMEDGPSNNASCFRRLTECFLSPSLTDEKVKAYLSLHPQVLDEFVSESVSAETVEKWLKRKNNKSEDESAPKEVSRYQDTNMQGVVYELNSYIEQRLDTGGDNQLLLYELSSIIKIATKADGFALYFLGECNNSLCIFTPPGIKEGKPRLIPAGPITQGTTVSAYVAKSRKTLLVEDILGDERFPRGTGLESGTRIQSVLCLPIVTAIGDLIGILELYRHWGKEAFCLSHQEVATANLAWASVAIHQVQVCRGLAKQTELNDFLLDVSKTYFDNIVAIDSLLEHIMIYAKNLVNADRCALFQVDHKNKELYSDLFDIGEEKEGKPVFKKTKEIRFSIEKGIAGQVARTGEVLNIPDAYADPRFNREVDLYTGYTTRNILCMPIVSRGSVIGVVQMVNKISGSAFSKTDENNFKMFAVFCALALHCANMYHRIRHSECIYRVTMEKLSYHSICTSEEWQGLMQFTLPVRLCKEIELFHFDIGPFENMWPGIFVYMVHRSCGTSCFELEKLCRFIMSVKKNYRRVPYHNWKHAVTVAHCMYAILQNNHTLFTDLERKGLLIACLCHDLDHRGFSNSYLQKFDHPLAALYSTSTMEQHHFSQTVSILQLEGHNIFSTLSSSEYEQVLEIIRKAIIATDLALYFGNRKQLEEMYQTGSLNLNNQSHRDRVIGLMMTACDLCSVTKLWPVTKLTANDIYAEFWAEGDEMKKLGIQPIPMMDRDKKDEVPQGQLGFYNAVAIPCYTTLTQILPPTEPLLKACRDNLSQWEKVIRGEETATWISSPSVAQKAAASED
# [20] = target: T1, cGMP-dependent 3',5'-cyclic phosphodiesterase
# Description: Inhibition of PDE2A (unknown origin) using tritium labeled cAMP as substrate after 1 hr by scintillation proximity assay
# [21] = target: T2, cAMP and cAMP-inhibited cGMP 3',5'-cyclic phosphodiesterase 10A
# Description: Inhibition of PDE10A (unknown origin) using tritium labeled cAMP as substrate after 1 hr by scintillation proximity assay
# [22] = Selectivity ratio of IC50 for porcine/bovine PDE1C to IC50 for porcine/bovine heart myocardium PDE2; type: tissue-based
# [23] = Inhibition of pig/bovine heart myocardium PDE2 after 15 mins by scintillation proximity assay in presence of [3H]-cAMP; type: tissue-based
# [24] = Selectivity ratio of IC50 for PDE (unknown origin) to IC50 for porcine/bovine heart myocardium PDE2; type: tissue-based
# [25] = Ratio of unbound drug level in brain to plasma in rat; conditions: brain and plasma (unbound), read-out: K(p,uu,brain)
# [26] = organism: Bos taurus; experiment: Inhibition of bovine vascular smooth muscle PDE3 using cAMP/cGMP as substrate at 10 uM relative to control; type: tissue-based; conditions: Muscle tissue
# [27] = organism: Bos taurus; experiment: Inhibition of bovine vascular smooth muscle PDE4 using cAMP/cGMP as substrate at 10 uM relative to control; type: tissue-based; conditions: Muscle tissue
smiles,measurement,setting,value
Cc1nc2ccc(CN3CCOCC3)cc2n2c(-c3ccccc3Cl)nnc12,concentration at 5 min,[1],70 ng/g
same,Ratio IC50,[2],> 600
Cc1nc(-c2cnn(C)c2-c2ccc(C(F)(F)F)cc2)c2c(N3CC(F)C3)ncnn12,Ratio IC50,[3],> 20000
same,Ratio IC50,[4],> 20000
same,Ratio IC50,[5],> 20000
same,Ratio IC50,[6],> 20000
same,Ratio IC50,[7],> 20000
same,Ratio IC50,[8],> 20000
same,Ratio IC50,[9],> 20000
same,Ratio IC50,[10],> 20000
same,Ratio IC50,[11],> 20000
CCC(CC)c1nn(CCO)c2c1N=C(c1ccc(-n3ccnc3C)cc1)CNC2=O,clearance,[12],70 mL/min/kg
same,half-life,[13],30 min
COc1ccc2nnc3c(C)nc(-c4ccccc4Cl)n3c2n1,IC50,[14],4 nM
Cc1nc2ccc(CN3CCOCC3)cc2n2c(-c3c([18F])cccc3Cl)nnc12,Drug uptake,[15],92%
same,Drug uptake,[16],96%
same,Drug uptake,[17],82%
same,Drug uptake,[18],96%
Cc1ccc2nc(C)c3nnc(-c4cc(OCCCC(F)(F)F)ccc4Cl)n3c2c1,IC50,[19],> 1000 nM
COc1cccc2nc(C)c3nnc(-c4ccccc4Cl)n3c12,IC50,[20],6 nM
same,IC50,[21],9 nM
COc1ncc(-c2cc(C3=Nc4c(C(C)(C)C)nn(CCO)c4C(=O)NC3)ccc2OC)cn1,clearance,[12],27 mL/min/kg
same,half-life,[13],90 min
COc1ccc(Cc2nc(O)c3c(C)nc([C@@H](CCCc4ccccc4)[C@@H](C)O)n3n2)cc1OC,Ratio IC50,[22],50
same,IC50,[23],2 nM
same,Ratio IC50,[24],> 100
Cc1nc(-c2cnn(C)c2-c2ccc(C(F)(F)F)cn2)c2c(N3CCC3)ncnn12 [PF-05180999],Kp uu,[25],0.5
COc1cc2c(cc1-c1ccccc1)C(c1cccc(C(N)=O)c1)=NCC(=O)N2C,inhibition,[26],23%
same,inhibition,[27],14%
